# Assays:
# [1] = Stability and protonation constants of Cu^II complexes by spectrophotometry; assay type: physicochemical
# Procedure: The stability constants of CuL2 were determined by spectrophotometry studying the Cu^2+–L2 systems at the absorption band of Cu^2+ complexes at [H^+] = […] in the wavelength range 210–350 nm. The concentrations of Cu^2+ and L2 were 0.72 mM. The H^+ concentration in the samples was adjusted with the addition of calculated amounts of 3 M HCl. (I = [Na^+] + [H^+] = 0.15, [H^+] ≤ 0.15 M). The samples were kept at 25 °C for 1 week. The absorbance values of the samples were determined at 11 wavelengths (260, 269, 278, 287, 296, 305, 314, 323, 332, 341, and 350 nm). For the calculations of the stability and protonation constants of the […], the molar absorptivities of CuCl2, CuL2, Cu(HL2), Cu(H2L2), and Cu(H3L2) were determined by recording the spectra of 1.0 × 10^–3, 3.0 × 10^–4, 6.0 × 10^–4, and 9.0 × 10^–4 M solutions of CuCl2 and CuL2 in the pH range 1.7–7.5. The pH was adjusted by stepwise addition of concentrated NaOH or HCl solutions. The spectrophotometric measurements were made with the use of a PerkinElmer Lambda 365 UV–vis spectrophotometer at 25 °C, using 1.0 cm cells. The protonation and stability constants were calculated with the PSEQUAD program.[35]
# The stability and protonation constants of CaII-, ZnII-, CuII- and GdIII-complexes of L2, expressed by Eqs. (S2) and (S3), were determined by pH-potentiometry and spectrophotometry at 25 °C in 0.15 M […]
# where i=0, 1, 2, 3. The KML and KMHiL values of CaII-, ZnII- and CuII-L2 complexes were calculated from the pH-potentiometric titration data obtained at 1:1 metal to ligand concentration ratios. In the calculations, the best fitting of the mL NaOH – pH data was obtained by assuming the formation of […]
# ML, MHL, MH2L and MH3L species. […]
# – pH data of the “out-of-cell” samples, which had equilibrium pH values in the range of 2.0 – 4.0.
# For the complete characterization of the Gd3+-L2 system, the GdL2 complex (which is formed completely at about pH=3.5) was titrated with 0.2 M NaOH solution in the pH range 3.5 – 12.0.
# (also on this page, place not known: MH 2L H3L w as derivative s “out -of-cage” *Ln(H 2DOTA)), groups , Ln III-ion donor s . Ln III system. 11,12 th out -of-cage * KGd(H2L) Gd 3+ - ligand 2. 0 Gd 3+-L2 GdL 2 is pH= 3.5) M pH ]L][M[ ]ML[K ML = ]H][LMH[ ]LMH[K 1i i LMHi + − = ]LH][Ln[ )]LH(Ln[K 2 3 2 )LH(Ln 2 + * =) […]
# the deprotonation of the Gd(HL) and GdL species, respectively. […]
# By taking into account the protonation constants of the ligand L2, the stability constant of the *Gd(H2L2) intermediate and the stability and protonation constant of the GdL2 complex, the species distribution of the Gd3+ - L2 system was calculated (Figure S1). […]
# Then, the stability and protonation constants of CuL2 were determined by spectrophotometry. […]
# [2] = Protonation constants of the ligands by pH potentiometry; assay type: physicochemical; details: I = 0.15 M NaCl, 298 K
# Text: The metal complexes of biomedical interest must show a high in vivo stability, which includes high thermodynamic stability and kinetic inertness to allow targeting applications and to avoid possible toxic effects derived by metal ion and ligand release via transmetalation or transchelation reactions.[2],[3],[13] The protonation constants of L2 as well as the stability and the protonation constants of GdL2 and those of the most important endogenous divalent metal complexes (Ca^II-, Zn^II-, and Cu^II) were determined by pH potentiometry (Table 1 and Table S1). In the case of GdL1, we were interested in determining the dissociation constant of the hydroxyl group that was measured also by pH potentiometry (Table 1). Experimental details and the definitions and equations used for the evaluation of the equilibrium and kinetic data are summarized in the SI.
# The chemicals used for the experiments were of the highest analytical grade. The concentrations of the CaCl2, ZnCl2, CuCl2, and GdCl3 solutions were determined by complexometric titration with standardized Na2H2EDTA and xylenol orange (ZnCl2, and GdCl3), murexid (CuCl2), and Patton and Reeder (CaCl2) as indicators. The concentration of the H3L1 and H4L2 was determined by pH potentiometric titration in the presence and absence of a large (40-fold) excess of CaCl2. The pH potentiometric titrations were performed with standardized 0.2 M NaOH.
# For the pH measurements and titrations, the Metrohm 888 Titrando titration workstation Metrohm-6.0234.110 combined electrode was used. Equilibrium measurements were carried out at a constant ionic strength (0.15 M NaCl) in 6 mL samples at 25 °C. The solutions were stirred, and N2 was bubbled through them. The titrations were made in the pH range 1.7–12.0. KH-phthalate (pH = 4.005) and borax (pH = 9.177) buffers were used to calibrate the pH meter. For the calculation of [H^+] from the measured pH values, the method proposed by Irving et al. was used as follows.[34] A 0.01 M HCl solution was titrated with standardized NaOH solution at 0.15 M NaCl ionic strength. The differences (A) between the measured (pHread) and calculated (−log[H^+]) pH values were used to obtain the equilibrium H^+ concentration from the pH values measured in the titration experiments (A = 0.024). For the equilibrium calculations, the stoichiometric water ionic product (pKw) was also needed to calculate [OH^–] values under basic conditions. The VNaOH–pHread data pairs of the HCl–NaOH titration obtained in the pH range 10.5–12.0 were used to calculate the pKw value (pKw = 13.79).
smiles,measurement,setting,value
"O=C(O)CN1CCN(CC(=O)O)CCN(C[C@@H](O)C(=O)O)CCN(CC(=O)O)CC1 [L2, (R)2,2′,2″-(10-(2-Carboxy-2-hydroxyethyl)-1,4,7,10-tetraazacyclododecane-1,4,7-triyl) Triacetic Acid]",CuH2L (log K),"[1]; 0.15 M NaCl, 25 °C",3.36 (2)
same,CuH3L (log K),"[1]; 0.15 M NaCl, 25 °C",1.36 (8)
same,"CuHL (log K, protonation constant of the complex)","[1]; 0.15 M NaCl, 25 °C",3.84 (2)
same,"CuL (log K, stability constant)","[1]; spectrophotometry, I = [Na^+]+[H^+] = 0.15 M, [H^+] ≤ 0.15 M, 298 K",21.87 (6)
same,log K5^H,[2]; first line headed log K5^H,2.47 (4)
same,log K1^H,[2]; ligand protonation constant,8.95 (3)
same,log K2^H,[2]; ligand protonation constant,8.95 (2)
same,log K3^H,[2]; ligand protonation constant,4.22 (3)
same,log K4^H,[2]; ligand protonation constant,3.74 (3)
same,log K5^H,[2]; second line headed log K5^H (sixth constant),1.75 (4)

# — paper PMC8769378, “Underlining the Importance of Peripheral Protic Functional Groups to Enhance the Proton Exchange of Gd-Based MRI Contrast Agents” (Inorganic Chemistry, 2021)
